From ChEMBL document CHEMBL1125372, “Crystal-structure-based design and synthesis of benz[cd]indole-containing inhibitors of thymidylate synthase” (J Med Chem, 1992)

What was measured:
GC3/MTK- = experiment: Inhibition of cellular growth by the MTT colorimetric assay in GC3/M TK-, a human thymidine kinase deficient adenocarcinoma line
L1210 = experiment: Inhibition of cellular growth by the MTT colorimetric assay in L1210, murine leukemia cell line; conditions: Mus musculus
CCRF-CEM = experiment: Inhibition of cellular growth by the MTT colorimetric assay in CCRF-CEM, human lymphoblasticof T-cell origin
[1] = biological target: Thymidylate synthase (Escherichia coli) (UniProt C3SWJ7)
Chain of Thymidylate synthase (Escherichia coli) (C3SWJ7 1-264): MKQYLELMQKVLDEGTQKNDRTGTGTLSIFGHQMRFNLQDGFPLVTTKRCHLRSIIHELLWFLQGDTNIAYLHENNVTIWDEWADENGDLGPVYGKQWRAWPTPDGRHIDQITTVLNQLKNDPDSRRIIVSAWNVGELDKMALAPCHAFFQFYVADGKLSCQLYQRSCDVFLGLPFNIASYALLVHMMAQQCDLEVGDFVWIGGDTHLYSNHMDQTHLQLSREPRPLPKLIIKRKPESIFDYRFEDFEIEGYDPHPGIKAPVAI
Description: Compound was evaluated for its inhibitory activity against thymidylate synthase from Escherichia coli

[2] = biological target: Thymidylate synthase (Escherichia coli) (UniProt C3SWJ7); remark: listed apart in the source
Description: Inhibitory activity against thymidylate synthase from Escherichia coli

[3] = Compound was evaluated for thymidylate shift expressed as the ratio of the IC50 in the presence of […] uM thymidylate divided by the IC50 with no thymidylate added
[4] = biological target: Thymidylate synthase (Homo sapiens) (UniProt P04818)
Chain of Thymidylate synthase (Homo sapiens) (P04818 2-313 limits assumed): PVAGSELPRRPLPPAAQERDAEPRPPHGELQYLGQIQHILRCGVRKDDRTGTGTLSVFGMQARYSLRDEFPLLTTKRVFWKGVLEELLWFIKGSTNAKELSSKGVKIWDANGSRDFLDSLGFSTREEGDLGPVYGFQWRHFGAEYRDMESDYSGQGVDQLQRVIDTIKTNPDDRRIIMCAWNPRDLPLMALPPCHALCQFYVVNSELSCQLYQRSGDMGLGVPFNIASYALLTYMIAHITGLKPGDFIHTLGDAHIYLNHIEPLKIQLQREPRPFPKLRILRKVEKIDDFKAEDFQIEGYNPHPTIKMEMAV
Description: (§1) Inhibitory activity against thymidylate synthase from human

[5] = biological target: Thymidylate synthase (Homo sapiens) (UniProt P04818); remark: listed apart in the source
Description: as §1

Compound | IC50 (GC3/MTK-) [nM] | IC50 (L1210) [nM] | IC50 (CCRF-CEM) [nM] | Kis [1] [µM] | Kii [2] [µM] | Thymidylate shift [3] | Kii [4] [µM] | Kis [5] [µM]
CN(Cc1ccc(S(=O)(=O)c2ccccc2)cc1)c1ccc2c3c(cccc13)C(NO)=N2 | > 5000 | 810 | 2000 | – | – | – | – | –
CN(Cc1ccc(S(=O)(=O)N2CCOCC2)cc1)c1ccc2c3c(ccc(Cl)c13)C(N)=N2 | 1400 | 440 | 900 | – | – | – | – | –
Cc1ccc2c3c(ccc(N(C)Cc4ccc(S(=O)(=O)c5ccc([N+](=O)[O-])cc5)cc4)c13)N=C2N | 910 | 570 | 690 | – | – | – | – | –
Cc1ccc2c3c(ccc(N(C)Cc4ccc(S(=O)(=O)c5ccccc5)cc4)c13)NC2=O | > 5000 | 1900 | 4800 | – | – | – | – | –
COc1ccc(S(=O)(=O)c2ccc(CN(C)c3ccc4c5c(cccc35)C(N)=N4)cc2)cc1 | 2100 | 1200 | 2100 | – | – | – | – | –
Cc1ccc2c3c(ccc(N(C)Cc4ccc(S(=O)(=O)c5ccc(N)cc5)cc4)c13)NC2=O | > 5000 | 3300 | 5000 | – | – | – | – | –
Cc1ccc2c3c(ccc(N(C)Cc4ccc(S(=O)(=O)N5CCOCC5)cc4)c13)NC2=O | > 5000 | 2600 | 3900 | – | – | – | – | –
CCN(Cc1ccc(S(=O)(=O)c2ccccc2)cc1)c1ccc2c3c(cccc13)C(N)=N2 | 3000 | 700 | 1250 | – | – | – | – | –
CNC1=Nc2ccc(N(C)Cc3ccc(S(=O)(=O)N4CCOCC4)cc3)c3c(C)ccc1c23 | 210 | 180 | 610 | 0.055 | 0.088 | – | – | –
CC(C)N(Cc1ccc(S(=O)(=O)N2CCNCC2)cc1)c1ccc2c3c(cccc13)C(=O)N2 | 5900 | 3900 | 6800 | – | – | – | – | –
CN(Cc1ccc(S(=O)(=O)c2ccc(O)cc2)cc1)c1ccc2c3c(cccc13)C(N)=N2 | 4050 | 2100 | 2700 | – | – | – | – | –
CCCN(Cc1ccc(S(=O)(=O)N2CCNCC2)cc1)c1ccc2c3c(cccc13)C(=O)N2 | 5400 | 2900 | 3100 | – | – | – | – | –
CNC1=Nc2ccc(N(C)Cc3ccc(S(=O)(=O)c4ccccc4)cc3)c3cccc1c23 | 3400 | 1600 | 3300 | – | – | – | – | –
CN(Cc1ccc(S(=O)(=O)N2CCOCC2)cc1)c1ccc2c3c(ccc(Cl)c13)C(=O)N2 | > 5000 | > 5000 | > 5000 | – | – | – | – | –
CSc1ccc2c3c(ccc(N(C)Cc4ccc(S(=O)(=O)N5CCOCC5)cc4)c13)N=C2N | 6900 | 1900 | 3100 | – | – | – | – | –
CC(=O)c1cccc2c(N(C)Cc3ccc(S(=O)(=O)c4ccc(N)cc4)cc3)ccc(N)c12 | > 10000 | 9100 | 5900 | – | – | – | – | –
Cc1ccc2c3c(ccc(N(C)Cc4ccc(S(=O)(=O)N5CCOCC5)cc4)c13)N=C2N | 440 | 220 | 220 | – | – | – | – | –
Cc1ccc2c3c(ccc(N(C)Cc4ccc(S(=O)(=O)c5ccc(N)cc5)cc4)c13)N=C2N | 270 | 280 | 200 | – | – | – | – | –
CN(Cc1ccc(S(=O)(=O)c2ccccc2)cc1)c1ccc2c3c(cccc13)C(NN)=N2 | > 10000 | 2400 | 1300 | – | – | – | – | –

Compound | IC50 (GC3/MTK-) [nM] | IC50 (L1210) [nM] | IC50 (CCRF-CEM) [nM] | Kis [1] [µM] | Kii [2] [µM] | Thymidylate shift [3] | Kii [4] [µM] | Kis [5] [µM]
CCN(Cc1ccc(S(=O)(=O)c2ccccc2)cc1)c1ccc2c3c(cccc13)C(=O)N2 | 3330 | 3050 | > 3330 | – | – | – | – | –
O=C1Nc2ccc(NCc3ccc(S(=O)(=O)c4ccccc4)cc3)c3cccc1c23 | > 4000 | 2300 | > 4000 | – | – | – | – | –
CSCN(Cc1ccc(S(=O)(=O)c2ccccc2)cc1)c1ccc2c3c(cccc13)C(=O)N2 | > 10000 | 2100 | 2800 | – | – | – | – | –
CN(Cc1ccc(S(=O)(=O)c2ccc(O)cc2)cc1)c1ccc2c3c(cccc13)C(=O)N2 | 9500 | 10000 | 9500 | – | – | – | – | –
COc1ccc(S(=O)(=O)c2ccc(CN(C)c3ccc4c5c(ccc(C)c35)C(=O)N4)cc2)cc1 | > 5000 | 2000 | 4000 | – | – | – | – | –
CNC1=Nc2ccc(N(C)Cc3ccc(S(=O)(=O)N4CCOCC4)cc3)c3cccc1c23 | > 5000 | 1800 | > 5000 | – | – | – | – | –
Cc1ccc2c3c(ccc(N(C)Cc4ccc(S(=O)(=O)c5ccc([N+](=O)[O-])cc5)cc4)c13)NC2=O | > 5000 | 890 | 2400 | – | – | – | – | –
CN(Cc1ccc(S(=O)(=O)N2CCOCC2)cc1)c1ccc2c3c(cccc13)C(=O)N2 | > 5000 | > 5000 | > 5000 | – | – | – | – | –
O=C1Nc2ccc(N(CCCO)Cc3ccc(S(=O)(=O)N4CCNCC4)cc3)c3cccc1c23 | 30000 | 21500 | 15000 | – | – | – | – | –
Cc1ccc2c3c(ccc(N(C)Cc4ccc(S(=O)(=O)c5ccccc5)cc4)c13)N=C2N | 520 | 250 | 360 | – | – | 3.85 | – | –
CNC1=Nc2ccc(N(C)Cc3ccc(S(=O)(=O)c4ccc(OC)cc4)cc3)c3c(C)ccc1c23 | 1500 | 720 | 890 | – | – | – | – | –
CN(Cc1ccc(S(=O)(=O)c2ccc([N+](=O)[O-])cc2)cc1)c1ccc2c3c(cccc13)C(=O)N2 | > 5000 | 2000 | 2800 | – | – | – | – | –
O=C1Nc2ccc(N(CCO)Cc3ccc(S(=O)(=O)N4CCNCC4)cc3)c3cccc1c23 | > 50000 | 50000 | 31000 | – | – | – | – | –
Cc1ccc2c3c(ccc(NCc4ccc(S(=O)(=O)c5ccccc5)cc4)c13)NC2=O | > 5000 | 2000 | 2500 | – | – | – | – | –
COc1ccc(S(=O)(=O)c2ccc(CN(C)c3ccc4c5c(ccc(C)c35)C(N)=N4)cc2)cc1 | 970 | 310 | 400 | – | – | – | – | –
CSC1Nc2ccc(N(C)Cc3ccc(S(=O)(=O)c4ccc(O)cc4)cc3)c3cccc1c23 (stereo unspecified) | > 4000 | > 4000 | > 4000 | – | – | – | – | –
COc1ccc(S(=O)(=O)c2ccc(CN(C)c3ccc4c5c(ccc(C)c35)C(NO)=N4)cc2)cc1 | > 10000 | 4100 | 5000 | – | – | – | – | –
COc1ccc(S(=O)(=O)c2ccc(CN(C)c3ccc4c5c(cccc35)C(=O)N4)cc2)cc1 | 10000 | 4600 | 3000 | – | – | – | – | –
CN(Cc1ccc(S(=O)(=O)N2CCOCC2)cc1)c1ccc2c3c(cccc13)C(=N)N2 | 900 | 490 | 460 | 1.8 | 5.4 | – | 0.015 | 0.012
